Columns and labels:
[1] = system: GABA-A receptor (Mus musculus); assay: cells
[2] = biological target: GABA-A receptor; anion channel; assay: Displacement of [3H]muscimol from rat brain gamma-aminobutyric-acid GABA-A receptor

Compound | IC50 [1] | Ki [2]
Oc1noc(C2CCNCC2)c1Cc1ccc2ccccc2c1 | 370 nM | –
Oc1noc(C2CCNCC2)c1Cc1ccc2ccccc2c1Cl | 113 nM | 16 nM
Oc1noc(C2CCNCC2)c1Cc1ccc2ccc(Br)cc2c1 | 384 nM | 109 nM
Oc1noc(C2CCNCC2)c1Cc1ccc2ccccc2c1Br | 42 nM | 10 nM
CSc1c(Cc2c(O)noc2C2CCNCC2)ccc2ccccc12 | 61 nM | 28 nM
Oc1noc(C2CCNCC2)c1Cc1ccc2ccccc2c1-c1ccccc1 | 198 nM | 21 nM
Oc1noc(C2CCNCC2)c1Cc1ccc2ccccc2c1Sc1ccccc1 | 126 nM | 250 nM
Oc1noc(C2CCNCC2)c1-c1ccccc1 | 159 nM | 220 nM
Oc1noc(C2CCNCC2)c1Cc1ccc2c(Br)cccc2c1 | 215 nM | 80 nM
Oc1noc(C2CCNCC2)c1Cc1ccc2cccc(Br)c2c1 | 226 nM | 45 nM
O=c1[nH]oc(C2CCNCC2)c1-c1cccc2ccccc12 | 334 nM | 820 nM
N#Cc1c(Cc2c(O)noc2C2CCNCC2)ccc2ccccc12 | 140 nM | 28 nM
Oc1noc(C2CCNCC2)c1Cc1ccc2ccccc2c1F | 242 nM | 19 nM
Oc1noc(C2CCNCC2)c1-c1ccc2ccccc2c1 | 141 nM | 36 nM

Source: ChEMBL document CHEMBL1145174, “Potent 4-aryl- or 4-arylalkyl-substituted 3-isoxazolol GABA(A) antagonists: synthesis, pharmacology, and molecular modeling” (J Med Chem, 2005)
